US20100120700A1, “METHODS AND COMPOSITIONS FOR TREATING CERVICAL CANCER” (priority 2000, published 2010)
Values joined by “and” are separate entries in the source; they are usually repeats but may differ in a detail not shown here. Equal values may be shown once.

Tests used:
Experiment in all cases: G assay PDZ-PL binding
APXL1 domain 1 = target: T1, APXL1 domain 1 (Homo sapiens, UniProt Q13796); conditions: peptide 10 uM, protein 5
T1 construct: made in house; host or cells: E. coli (DH5alpha, BL21 or JM109), vector pGEX-3X
Method: (§1) (1) A PDZ-domain polypeptide is bound to a surface, e.g. a protein binding surface. In a preferred embodiment, a GST/PDZ fusion protein containing one or more PDZ domains is bound to a polystyrene 96-well plate. […] In one embodiment, the GST/PDZ fusion protein is bound via an anti-GST antibody that is coated onto the 96-well plate. Adequate binding to the plate can be achieved when: • a. 100 uL per well of 5 ug/mL goat anti-GST polyclonal antibody (Pierce) in PBS is added to a polystyrene 96-well plate (e.g., Num Polysorb) at 4° C. for 12 hours. • b. The plate is blocked by addition of 200 uL per well of PBS/BSA for 2 hours at 4° C. • c. The plate is washed 3 times with PBS. • d. 50 uL per well of 5 ug/mL GST/PDZ fusion protein) or, as a negative control, GST polypeptide alone (i.e. not a fusion protein) in PBS/BSA is added to the plate for 2 hours at 4° C. • e. The plate is again washed 3 times with PBS. […]
(§2) (3) The binding of the biotinylated peptide to the GST/PDZ fusion protein surface can be detected using a variety of methods and detectors known to one of skill in the art. In one embodiment, 100 uL per well of 0.5 ug/mL streptavidin-horse radish peroxidase (HRP) conjugate dissolved in BSA/PBS is added and allowed to react for 20 minutes at 4° C. The plate is then washed 5 times with 50 mM Tris pH 8.0 containing 0.2% Tween 20, and developed by addition of 100 uL per well of HRP-substrate solution (TMB, Dako) for 20 minutes at room temperature (RT). The reaction of the HRP and its substrate is terminated by addition of 100 uL per well of 1M sulfuric acid, and the absorbance of each well of the plate is read at 450 nm.
(§3) (4) Specific binding of a PL peptide and a PDZ domain polypeptide is determined by comparing the signal from the well(s) in which the PL peptide and PDZ domain polypeptide are combined, with the background signal(s). The background signal is the signal found in the negative control(s). Typically a specific or selective reaction will be at least twice background signal, more typically more than 5 times background, and most typically 10 or more times the background signal. In addition, a statistically significant reaction will involve multiple measurements of the reaction with the signal and the background differing by at least two standard errors, more typically four standard errors, and most typically six or more standard errors. Correspondingly, a statistical test (e.g. a T-test) comparing repeated measurements of the signal with-repeated measurements of the background will result in a p-value<0.05, more typically a p-value<0.01, and most typically a p-value<0.001 or less. As noted, in an embodiment of the “G” assay, the signal from binding of a given PL peptide to immobilized (surface bound) GST polypeptide alone is one suitable negative control (sometimes referred to as “B 1”). Because all measurement are done in multiples (i.e. at least duplicate) the arithmetic mean (or, equivalently, average.) of several measurements is used in determining the binding, and the standard error of the mean is used in determining the probable error in the measurement of the binding. The standard error of the mean of N measurements equals the square root of the following: the sum of the squares of the difference between each measurement and the mean, divided by the product of (N) and (N−1). Thus, in one embodiment, specific binding of the PDZ protein to the platebound peptide is determined by comparing the mean signal (“mean S”) and standard error of the signal (“SE”) for a particular PL-PDZ combination with the mean B1.
(§4) For convenience, the assay conditions described in this section are referred to as the “G’ assay” and the “G” assay,” with the specific conditions described in the preceding section on G assays being referred to as the “G° assay.” The “G′ assay” is identical to the “G° assay” except at step (2) the peptide concentration is 10 uM instead of 20 uM. […]

DLG1 domain 3 = target: T2, DLG1 domain 3 (Homo sapiens, UniProt Q12959); conditions: peptide 10 uM, protein 5
T2 construct: made in house; host or cells: E. coli (DH5alpha or BL-21)
Method: as §1, §2, §3, §4

EBP50 #168.2 domain 2 = target: T3, EBP50 #168.2 domain 2 (Homo sapiens, UniProt O14745); conditions: peptide 10 uM, protein 5
T3 construct: made in house; host or cells: E. coli (DH5alpha, BL21 or JM109)
Method: as §1, §2, §3, §4

[1] = target: T4, HEMBA 1003117 #193.3 domain 1 (Homo sapiens, UniProt Q96JH8); conditions: peptide 10 uM, protein 5
T4 construct: made in house; host or cells: E. coli (DH5alpha, BL21 or JM109)
Method: as §1, §2, §3, §4

KIAA0147 domain 3 = target: T5, KIAA0147 domain 3 (Homo sapiens, UniProt Q14160); conditions: A450 nm, peptide 10 uM, protein 5
T5 construct: made in house; host or cells: E. coli (DH5alpha, BL21 or JM109)
Method: as §1, §2, §3, §4

KIAA0147 domain 4 = target: T6, KIAA0147 domain 4 (Homo sapiens, UniProt Q14160); conditions: peptide 10 uM, protein 5
T6 construct: made in house; host or cells: E. coli (DH5alpha, BL21 or JM109)
Method: as §1, §2, §3, §4

KIAA0380 #25.6 domain 1 = target: T7, KIAA0380 #25.6 domain 1 (Homo sapiens, UniProt O15085); conditions: vs GST only well, peptide 10 uM, protein 5
T7 construct: made in house; host or cells: E. coli (DH5alpha, BL21 or JM109), vector pGEX-3X
Method: as §1, §2, §3, §4

KIAA0973 #148.5 domain 1 = target: T8, KIAA0973 #148.5 domain 1 (Homo sapiens, UniProt Q9Y2H9); conditions: peptide 10 uM, protein 5
T8 construct: made in house; host or cells: E. coli (DH5alpha, BL21 or JM109)
Method: as §1, §2, §3, §4

NeDLG domain 2 = target: T9, NeDLG domain 2 (Homo sapiens, UniProt Q92796); conditions: vs GST only well, peptide 10 uM, protein 5
T9 construct: made in house; host or cells: E. coli (DH5alpha, BL21 or JM109)
Method: as §1, §2, §3, §4

Numb BP domain 1 = target: T10, Numb BP domain 1 (Homo sapiens, UniProt Q8TBB1); conditions: peptide 10 uM, protein 5
T10 construct: made in house; host or cells: E. coli (DH5alpha, BL21 or JM109)
Method: as §1, §2, §3, §4

RGS12 domain 1 = target: T11, RGS12 domain 1 (Homo sapiens, UniProt O14924); conditions: peptide 10 uM, protein 5
T11 construct: made in house; host or cells: E. coli (DH5alpha, BL21 or JM109), vector pGEX-3X
Method: as §1, §2, §3, §4

Shroom domain 1 = target: T12, Shroom domain 1 (Homo sapiens, UniProt Q8TF72); conditions: peptide 10 uM, protein 5
T12 construct: made in house; host or cells: E. coli (DH5alpha or BL-21)
Method: as §1, §2, §3, §4

TAX IP 2 domain 1 = target: T13, TAX IP 2 domain 1 (Homo sapiens, UniProt O14908); conditions: peptide 10 uM, protein 5
T13 construct: made in house; host or cells: E. coli (DH5alpha, BL21 or JM109)
Method: as §1, §2, §3, §4

TIP 43 #264.1 domain 1 = target: T14, TIP 43 #264.1 domain 1 (Homo sapiens, UniProt Q13884); conditions: vs GST only well, peptide 10 uM, protein 5
T14 construct: made in house; host or cells: E. coli (DH5alpha, BL21 or JM109)
Method: as §1, §2, §3, §4

T6 sequence (Q14160 1099-1203): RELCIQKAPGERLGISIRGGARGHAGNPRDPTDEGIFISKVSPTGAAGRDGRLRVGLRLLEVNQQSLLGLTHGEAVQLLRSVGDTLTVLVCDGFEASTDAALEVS
T8 sequence (Q9Y2H9 963-1055): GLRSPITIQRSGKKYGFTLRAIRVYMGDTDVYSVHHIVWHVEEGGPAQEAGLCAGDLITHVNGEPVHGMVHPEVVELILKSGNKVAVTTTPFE
T1 sequence (Q13796 with tags, fused parts or gaps): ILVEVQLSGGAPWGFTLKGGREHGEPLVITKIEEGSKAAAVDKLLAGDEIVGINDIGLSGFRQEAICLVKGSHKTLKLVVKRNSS
T11 sequence (O14924 with tags, fused parts or gaps): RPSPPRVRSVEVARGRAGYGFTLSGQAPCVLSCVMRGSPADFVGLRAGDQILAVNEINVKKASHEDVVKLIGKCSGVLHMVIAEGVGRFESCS
T13 sequence (O14908 131-216): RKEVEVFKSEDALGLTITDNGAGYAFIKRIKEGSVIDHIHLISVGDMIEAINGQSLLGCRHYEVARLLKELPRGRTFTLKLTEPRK
T12 sequence (Q8TF72 26-116): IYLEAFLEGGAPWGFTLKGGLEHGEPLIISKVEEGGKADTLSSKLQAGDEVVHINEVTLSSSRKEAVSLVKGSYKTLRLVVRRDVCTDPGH
T10 sequence (Q8TBB1 with tags, fused parts or gaps): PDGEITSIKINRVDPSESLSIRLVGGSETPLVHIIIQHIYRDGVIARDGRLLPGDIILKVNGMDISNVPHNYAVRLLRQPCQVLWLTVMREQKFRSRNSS
T9 sequence (Q92796 with tags, fused parts or gaps): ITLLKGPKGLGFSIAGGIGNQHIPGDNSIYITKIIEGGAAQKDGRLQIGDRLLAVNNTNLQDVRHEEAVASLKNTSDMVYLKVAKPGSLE
T5 sequence (Q14160 with tags, fused parts or gaps): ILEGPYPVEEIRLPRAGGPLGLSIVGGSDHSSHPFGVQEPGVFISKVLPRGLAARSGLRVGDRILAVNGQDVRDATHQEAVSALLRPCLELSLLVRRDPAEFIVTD
T4 sequence (Q96JH8 969-1068): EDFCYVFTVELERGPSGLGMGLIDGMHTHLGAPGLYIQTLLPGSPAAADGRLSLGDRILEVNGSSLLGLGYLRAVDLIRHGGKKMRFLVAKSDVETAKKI
T7 sequence (O15085 45-123): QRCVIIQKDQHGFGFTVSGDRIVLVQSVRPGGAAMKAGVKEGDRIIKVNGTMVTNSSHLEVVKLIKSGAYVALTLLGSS
T14 sequence (Q13884 106-201): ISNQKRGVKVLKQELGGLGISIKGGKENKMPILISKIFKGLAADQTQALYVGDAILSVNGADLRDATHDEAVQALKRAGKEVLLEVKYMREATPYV
T3 sequence (O14745 with tags, fused parts or gaps): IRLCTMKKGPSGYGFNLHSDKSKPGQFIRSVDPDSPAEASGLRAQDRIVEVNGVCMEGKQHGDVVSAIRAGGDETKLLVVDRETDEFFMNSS

20 mer peptide corresponding to the C-terminus of HPV16 E6 (PDZ ligand), biotinylated in binding assays; ends SSRTRRETQL (SEQ ID NO: 13) [HPV E6 #16]
Ave OD (APXL1 domain 1; A450 nm): 0.4605 and 0.708
OD S/N (APXL1 domain 1; vs GST only well): 3.14 and 2.96
Ave OD (DLG1 domain 3; A450 nm): 0.3975
OD S/N (DLG1 domain 3; vs GST only well): 2.45
Ave OD (EBP50 #168.2 domain 2; A450 nm): 0.3455
OD S/N (EBP50 #168.2 domain 2; vs GST only well): 1.99
Ave OD ([1]; A450 nm): 0.517
OD S/N ([1]; vs GST only well): 2.20
Ave OD (KIAA0147 domain 3): 2.0785 and 1.072
Ave OD (KIAA0147 domain 4; A450 nm): 0.464 and 0.3795
OD S/N (KIAA0147 domain 4; vs GST only well): 2.17 and 2.34
OD S/N (KIAA0380 #25.6 domain 1): 1.95 and 3.06
Ave OD (KIAA0973 #148.5 domain 1; A450 nm): 0.378 and 0.4985
OD S/N (KIAA0973 #148.5 domain 1; vs GST only well): 1.68 and 2.71
OD S/N (NeDLG domain 2): 2.20 and 3.99
Ave OD (Numb BP domain 1; A450 nm): 0.352
OD S/N (Numb BP domain 1; vs GST only well): 3.17
Ave OD (RGS12 domain 1; A450 nm): 0.4295 and 0.661
OD S/N (RGS12 domain 1; vs GST only well): 3.96 and 4.64
Ave OD (Shroom domain 1; A450 nm): 0.361
OD S/N (Shroom domain 1; vs GST only well): 3.25
Ave OD (TAX IP 2 domain 1; A450 nm): 0.5085 and 0.478
OD S/N (TAX IP 2 domain 1; vs GST only well): 2.37 and 2.48
OD S/N (TIP 43 #264.1 domain 1): 8.50 and 8.76
